Tests used:
[1] = tested on: mouse; assay: Locomotor activity in the mouse; assay type: in vivo
[2] = tested on: Spontaneously hypertensive rats (SHR); assay: Antihypertensive activity on spontaneously hypertensive rats (SHR); assay type: in vivo, rat; details: for Mean arterial pressure % reduction: SHR
Text: All the compounds of formula (I) have antihypertensive activity on Spontaneously hypertensive rats (SHR), as clearly shown by the results reported in the following Table III.

[3] = tested on: guinea pig platelet; assay: In vitro guinea pig platelet aggregation induced by ADP; assay type: cell-based; details: guinea pig platelets
[4] = tested on: reserpinized rat; assay: Antihyperprolactinemic activity in the reserpinized rat; assay type: in vivo; details: for Plasmatic prolactin % reduction: reserpinized rat
[5] = tested on: rat seminal vesicle; assay: Adrenolytic activity in the rat seminal vesicle test in vitro
Text: Most of the compounds of formula (I) have a marked adrenolytic activity in the rat seminal vesicle test in vitro.

[6] = tested on: isolated uterus of female rat; assay: Antiserotonin activity in vitro on isolated uterus of female rat; details: for ED₅₀: antiserotonin activity, isolated uterus of female rat
Text: All the compounds of the invention have a marked antiserotonin activity in vitro test on isolated uterus of female rat.

[7] = tested on: rat; assay: Stereotypy test in the rat; assay type: in vivo; details: dose 10 mg/kg i.p.
[8] = After 1 hour, dose 0.25 mg/kg os
[9] = After 2 hours, dose 0.50 mg/kg os

| Molecule | % inhibition ([1]; dose 20 mg/kg i.p.) [%] | Mean arterial pressure % reduction ([2]; dose = 1 mg/kg i.p.) [%] | Mean arterial pressure % reduction ([2]; dose = 3 mg/kg i.p.) [%] | hypotensive / antihypertensive activity ([2]; result in words) | Platelet aggregation % reduction ([3]; Dose 40 mcg/ml) [%] | Plasmatic prolactin % reduction [4, 8] [%] | Plasmatic prolactin % reduction [4, 9] [%] | antihyperprolactinemic activity ([4]; result in words) | ED₅₀ [5] [µg/mL] | ED₅₀ [6] [µg/mL] | antiserotonin activity ([6]; result in words) | % inhibition ([1]; dose 10 mg/kg i.p.) [%] | Mean score [7] | Platelet aggregation % reduction ([3]; Dose 80 mcg/ml) [%] |
| --- | --- | --- | --- | --- | --- | --- | --- | --- | --- | --- | --- | --- | --- | --- |
| CN(C[C@@H]1C=C2c3cccc4[nH]cc(c34)C[C@H]2N(C)C1)C1CC1 [P 1427, N-methyl-N-cyclopropyl-9,10-didehydro-6-methylergoline-8β-methanamine] | 92.7 | 35.6 | 32.4 | high | 25 | 67.2 | 86.6 | interesting | 0.70 | 0.004 | high | – | – | – |
| α-Bromocryptine [reference compound] | – | – | – | – | – | 78.2 | 80.9 | – | – | 0.470 | – | 78.7 | 2.25 | 25 |
